Reference: patent EP0082731A1, “The use of peptides as medicaments” (NOVO INDUSTRI A/S, priority 1981, dated 1983)

What was measured:
rats [1] = experiment: Experiment A: effect on IRI-release in glucose-infused rats in vivo (RIA on plasma); design: species or system Wistar strain; conditions: anaesthetized rats, i.v. glucose 1.5 mg/min + glucagon(1-21) 100 µg/kg/h
Method: 10 male rats, Wistar strain, 150 g (+/- 5 g) were anaesthetized with Pentobarbital. Polyethylene catheters were inserted into the right carotid artery for blood sampling and the left jugular vein for infusions. The rats were divided into two groups with 5 animals in each group. One group was infused with glucose (1.5 mg/min) from 0 to 60 minutes (placebo) and one group was infused with glucose (1.5 mg/min) + glucagon(1-21) (100 µg/kg/h) from […]. Blood was sampled into glasses on ice containing heparin (250 IU/ml) and aprotinin (600 KIU/ml) at the times 0, 1, 10, 20, 30, 40, 50, and 60 minutes. Insulin was determined by radio- immuno assay (RIA) on plasma.

pigs [2] = experiment: Experiment C1: effect on plasma glucose in pigs during intravenous glucose infusion; format: in vivo, pigs (Danish breed/Yorkshire); conditions: for Plasma glucose: pigs, cross-over, i.v. glucose 0.7 g/kg/h + glucagon(1-21) 100 µg/kg/h 0-120 min
Method: The effect of glucagon(1-21) on plasma glucose levels was investigated during an intravenous glucose infusion. 4 female pigs (Danish breed/Yorkshire) weighing 30 kg (+/- 3 kg) were dosed with glucose (0.7 g/kg/h) as an intravenous infusion and with the same glucose infusion + infusion of glucagon(-1-21) (100µg/kg/h) from 0 to 120 minutes. The experiment was carried out as a cross-over experiment. The pigs were infused through intravenous ear catheters and blood samples were taken from the other ear at the times 0, 15, 30, 45, 60, 75, 90, 105, and 120 minutes. Glucose was analyzed by the hexokinase method and the blood glucose values are stated in Table IV below.

rats [3] = experiment: Experiment B1: effect on blood glucose in rats in vivo, intravenous glucose infusion; design: species or system Wistar rats; conditions: for Blood glucose: rats, i.v. glucose 2 mg/min 0-30 min, then infusion of 1 mg glucagon(1-21) 30-60 min
Method: Blood samples were drawn from the carotid artery at the times 0, 2, 5, 10, 20, 25, 30, 40, 50, and 60 minutes and blood glucose values were determined by the hexokinase method on an autoanalyzer. The blood glucose values are stated in Table II below.

rat free fat cells = experiment: Lipolytic effect on rat free fat cells in vitro; format: cell-based; conditions: compared with glucagon
Normoglycaemic Rats = experiment: Experiment D: effect on plasma glucose and plasma IRI levels in normoglycaemic rats; format: in vivo, Wistar rats; conditions: for Blood glucose / Plasma IRI: i.v. injection at 0 min, equimolar doses (glucagon 1 mg/kg, glucagon(1-21) 0.77 mg/kg), mean, N = 10
Method: Glucagon (-1 mg/kg) and an equimolar dosis of glucagon(1-21), i.e. 0.77 mg/kg, were injected intravenously at the beginning time (time: 0 minutes) to normally fed male Wistar rats weighing 150 g (+/- 5 g). Blood samples were taken from the orbital plexus at the times -5, 2, 5, 10, 15, 30, and 60 minutes. Blood glucose was assayed according to the hexokinase method and plasma insulin was assayed by RIA. […] Contrary to glucagon, glucagon(1-21) had no effect on these parameters. Mean blood glucose values (N = 10) are stated in Table VI below, and mean plasma IRI values (N = 10) are stated in Table VII below.

rats [4] = experiment: Metabolic effects after administration to normally fasted and fed rats in vivo
NMRI mice = experiment: Experiment E: acute toxicity study; format: in vivo; conditions: 10 mg intravenously as a bolus, about 500 mg/kg body weight
pigs [5] = experiment: Experiment C2: oral glucose tolerance test in pigs; format: in vivo; conditions: cross-over, glucose 5 g/kg perorally at 0 and 60 min, glucagon(1-21) 1 mg/kg/h i.v. 0-120 min
Method: The effect of glucagon(1-21) on plasma glucose levels was investigated during an oral glucose tolerance test in pigs. 4 pigs were dosed in a cross-over experiment with glucose (5 g/kg) perorally at 0 and 60 minutes + placebo (saline with HSA) or glucagon(1-21) (1 mg/kg/h) from 0 to 120 minutes intravenously. Blood samples were drawn from an ear vein at the times -5, 10, 20, 30, 45, 60, 75, 90, 105, and 120 minutes and plasma glucose was assayed by the hexokinase method. The plasma glucose values are stated in Table V below: […]

[6] = tested on: isolated perfused rat pancreas; experiment: IRI (insulin) release from the isolated perfused rat pancreas
From the text: Such a use should be especially safe as no hypoglycaemia will occur during treatment because of the lack of IRI releasing effect in the presence of hypoglycaemia and normoglycaemia.
Furthermore, it is stated therein that compounds of formula I show no or minor, negligible metabolic effects. […] Based thereupon it is surprising that compounds of formula I have an insulin releasing effect on animals primed with glucose corresponding to hyperglycaemia.

[7] = normally fed rats, i.v., glucagon 1 mg/kg, glucagon(1-21) 0.77 mg/kg

With “glucagon-(1-21)-heneicosapeptide (HSQGTFTSDYSKYLDSRRAQD; Glucagon; UniProt P01275 53-73, looked up, fragment) [glucagon(1-21)]” the IRI (rats [1]; time 0 min) was 18 µU/ml, the IRI (rats [1]; time 1 min) was 43 µU/ml and the IRI (rats [1]; time 10 min) was 48 µU/ml. The IRI (rats [1]; time 20 min) was 62 µU/ml, the IRI (rats [1]; time 30 min) was 56 µU/ml and the IRI (rats [1]; time 40 min) was 56 µU/ml. The IRI (rats [1]; time 50 min) was 60 µU/ml, the IRI (rats [1]; time 60 min) was 55 µU/ml and the glucose tolerance (pigs [2]; glucose primed pigs, infused intravenously) was “improves the glucose tolerance”. For the same substance, the Plasma glucose (pigs [2]; time 0 min) was 0.9 mg/mL, the Plasma glucose (pigs [2]; time 15 min) was 1.5 mg/mL and the Plasma glucose (pigs [2]; time 30 min) was 1.7 mg/mL. For the same substance, the Plasma glucose (pigs [2]; time 45 min) was 1.8 mg/mL, the Plasma glucose (pigs [2]; time 60 min) was 1.9 mg/mL and the Plasma glucose (pigs [2]; time 75 min) was 1.8 mg/mL. The Plasma glucose (pigs [2]; time 90 min) was 2.0 mg/mL, the Plasma glucose (pigs [2]; time 105 min) was 1.9 mg/mL and the Plasma glucose (pigs [2]; time 120 min) was 1.9 mg/mL. The glucose tolerance (rats [3]; glucose primed rats, infused intravenously) was “improves the glucose tolerance”, the Blood glucose (rats [3]; time 0 min) was 1.0 mg/mL and the Blood glucose (rats [3]; time 2 min) was 1.2 mg/mL. It also gave a Blood glucose (rats [3]; time 5 min) of 1.4 mg/mL, a Blood glucose (rats [3]; time 10 min) of 1.5 mg/mL and a Blood glucose (rats [3]; time 20 min) of 1.7 mg/mL. It also gave a Blood glucose (rats [3]; time 25 min) of 1.9 mg/mL, a Blood glucose (rats [3]; time 30 min) of 1.9 mg/mL and a Blood glucose (rats [3]; time 40 min) of 1.3 mg/mL. For the same substance, the Blood glucose (rats [3]; time 50 min) was 1.0 mg/mL, the Blood glucose (rats [3]; time 60 min) was 0.8 mg/mL and the lipolytic effect (rat free fat cells) was “negligible”. The hyperglycaemia (Normoglycaemic Rats; in vivo in normally fed rats) was “does not cause hyperglycaemia”, the insulin release (Normoglycaemic Rats; in vivo in normally fed rats) was “does not cause hyperglycaemia or release insulin” and the “IRI release and plasma glucose levels” value (Normoglycaemic Rats; infused to rats and pigs with plasma glucose levels below 1.2 mg/ml) was “neither release IRI nor influence the plasma glucose levels”. The Blood glucose (Normoglycaemic Rats; normally fed rats, time 2 min) was 1.1 mg/mL, the “Plasma IRI” value (Normoglycaemic Rats; normally fed rats, time 2 min) was 30 µU/ml and the Blood glucose (Normoglycaemic Rats; normally fed rats, time 5 min) was 1.1 mg/mL. The “Plasma IRI” value (Normoglycaemic Rats; normally fed rats, time 5 min) was 33 µU/ml, the Blood glucose (Normoglycaemic Rats; normally fed rats, time 10 min) was 1.2 mg/mL and the “Plasma IRI” value (Normoglycaemic Rats; normally fed rats, time 10 min) was 35 µU/ml. The Blood glucose (Normoglycaemic Rats; normally fed rats, time 15 min) was 1.3 mg/mL, the “Plasma IRI” value (Normoglycaemic Rats; normally fed rats, time 15 min) was 43 µU/ml and the Blood glucose (Normoglycaemic Rats; normally fed rats, time 30 min) was 1.3 mg/mL. The “Plasma IRI” value (Normoglycaemic Rats; normally fed rats, time 30 min) was 38 µU/ml, the Blood glucose (Normoglycaemic Rats; normally fed rats, time 60 min) was 1.3 mg/mL and the “Plasma IRI” value (Normoglycaemic Rats; normally fed rats, time 60 min) was 30 µU/ml. The Blood glucose (Normoglycaemic Rats; normally fed rats, time -5 min) was 1.0 mg/mL, the “Plasma IRI” value (Normoglycaemic Rats; normally fed rats, time -5 min) was 32 µU/ml and the “effect on blood glucose” value (Normoglycaemic Rats; [7]) was “no effect”. For the same substance, the “effect on plasma IRI” value (Normoglycaemic Rats; [7]) was “no effect”, the metabolic effects (rats [4]) was “No metabolic effects have been found” and the adverse effects (NMRI mice) was “no adverse effects”. The deaths (NMRI mice) was “No deaths occurred”, the Plasma glucose (pigs [5]; time 10 min) was 1.0 mg/mL and the Plasma glucose (pigs [5]; time 20 min) was 1.4 mg/mL. The Plasma glucose (pigs [5]; time 30 min) was 1.7 mg/mL, the Plasma glucose (pigs [5]; time 45 min) was 1.8 mg/mL and the Plasma glucose (pigs [5]; time 60 min) was 1.9 mg/mL. For the same substance, the Plasma glucose (pigs [5]; time 75 min) was 1.8 mg/mL, the Plasma glucose (pigs [5]; time 90 min) was 1.7 mg/mL and the Plasma glucose (pigs [5]; time 105 min) was 1.7 mg/mL. For the same substance, the Plasma glucose (pigs [5]; time 120 min) was 2.1 mg/mL, the Plasma glucose (pigs [5]; time -5 min) was 0.8 mg/mL and the insulin releasing effect ([6]; at hyperglycaemia) was “have this effect”. For the same substance, the insulin release ([6]; buffer glucose concentration 0.6 mg/ml corresponding to hypoglycaemia, infused to the same concentration as glucagon) was “no such effect”, the “IRI (immunoreactive insulin) releasing effect, as share of glucagon's” value ([6]; buffer glucose concentration 1.5 mg/ml corresponding to mild hyperglycaemia) was “about 60%” and the “IRI (immunoreactive insulin) releasing effect, as share of glucagon's” value ([6]; buffer glucose concentration 2.0 mg/ml corresponding to hyperglycaemia) was “about 85%”.
